SMILES strings stand for the structures.

The target of assay [1] is T1, human sphingosine-1-phosphate receptor 1 (S1P1) (Homo sapiens (Human), UniProt P21453). The assay can be described thus: Inhibition of cAMP production (HTRF cAMP HiRange), S1P1 CHO-K1 cells. In kind it is cell-based. To be noted: for hS1P1 cAMP pEC50: inhibition of cAMP production, S1P1 CHO-K1 cells; for Emax: CHO-K1, efficacy (SPAN) normalized to fingolimod, read-out: hS1P1 cAMP SPAN. The method in brief: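 CHO-K1 cells stably co-expressing human S1P1 (C-terminal Prolink tag) and EA-β-arrestin2 were grown in AssayComplete Media 6 at 37° C. and 5% CO2, plated, and incubated overnight. Agonist-driven inhibition of intracellular cAMP was read by TR-FRET with the HTRF cAMP HiRange kit on a PheraStar reader. Potency is pEC50, and efficacy (SPAN) is normalized to fingolimod.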
(Cyclic AMP is a second messenger, typically raised through Gs and lowered through Gi signalling.)
Target sequence in this assay (P21453 whole entry, looked up): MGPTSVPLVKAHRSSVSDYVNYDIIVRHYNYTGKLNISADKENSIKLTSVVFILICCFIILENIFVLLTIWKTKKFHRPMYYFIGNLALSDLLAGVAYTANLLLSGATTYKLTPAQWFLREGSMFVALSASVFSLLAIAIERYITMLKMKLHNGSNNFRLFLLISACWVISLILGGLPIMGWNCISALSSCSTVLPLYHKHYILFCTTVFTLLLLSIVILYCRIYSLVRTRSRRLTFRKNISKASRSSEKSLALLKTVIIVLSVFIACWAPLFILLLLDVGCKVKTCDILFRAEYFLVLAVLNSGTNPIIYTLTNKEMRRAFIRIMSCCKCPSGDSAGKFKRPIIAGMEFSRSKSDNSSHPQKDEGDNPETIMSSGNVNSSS

The target of assay [2] is T1, human sphingosine-1-phosphate receptor 1 (S1P1). Description: β-Arrestin2 recruitment assay (PathHunter), S1P1 CHO-K1 cells. In kind it is cell-based. To be noted: for hS1P1 B-arrestin2 pEC50: β-arrestin2 recruitment, S1P1 CHO-K1 cells; for Emax: CHO-K1, efficacy (SPAN) normalized to fingolimod, read-out: hS1P1 B-arrestin2 SPAN. An outline of the steps:
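Enzyme-fragment complementation read-out: agonist-driven β-arrestin2 binding to ProLink-tagged human S1P1 in stable CHO-K1 cells restores β-galactosidase, measured 1 h at room temperature after a 60 min 37° C. compound incubation. Potency as pEC50, efficacy relative to fingolimod (SPAN).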
Target sequence in this assay (P21453 whole entry, looked up): as above
Target sequence in this assay (P32121 whole entry partner, looked up): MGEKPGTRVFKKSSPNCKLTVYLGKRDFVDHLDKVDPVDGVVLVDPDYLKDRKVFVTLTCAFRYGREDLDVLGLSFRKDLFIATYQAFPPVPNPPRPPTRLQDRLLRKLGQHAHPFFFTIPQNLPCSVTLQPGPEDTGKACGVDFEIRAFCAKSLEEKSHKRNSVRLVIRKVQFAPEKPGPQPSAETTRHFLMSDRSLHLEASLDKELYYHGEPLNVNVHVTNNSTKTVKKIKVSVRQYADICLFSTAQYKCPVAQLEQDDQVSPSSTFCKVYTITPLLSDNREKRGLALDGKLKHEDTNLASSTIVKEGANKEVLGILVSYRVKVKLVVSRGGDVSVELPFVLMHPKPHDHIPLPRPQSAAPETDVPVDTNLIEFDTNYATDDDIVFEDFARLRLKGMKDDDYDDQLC

Consider `CC(C)(CO)Cn1nnc2cc(-c3noc(-c4ccncc4C(F)(F)F)n3)ccc21` [Compound 528, 2,2-dimethyl-3-(5-(5-(3-(trifluoromethyl)pyridin-4-yl)-1,2,4-oxadiazol-3-yl)-1H-benzo[d][1,2,3]triazol-1-yl)propan-1-ol], for which the “hS1P1 cAMP pEC50” value in assay [1] is less than 6.5. Further, in assay [2], the “hS1P1 B-arrestin2 pEC50” value is less than 5.

Take `CC(C)(CO)Cn1nnc2cc(-c3noc(-c4cnccc4C(F)(F)F)n3)ccc21` [Compound 529, 2,2-dimethyl-3-(5-(5-(4-(trifluoromethyl)pyridin-3-yl)-1,2,4-oxadiazol-3-yl)-1H-benzo[d][1,2,3]triazol-1-yl)propan-1-ol]: the “hS1P1 cAMP pEC50” value in assay [1] is less than 6.5. Besides, the “hS1P1 B-arrestin2 pEC50” value in assay [2] was more than 5.

For the molecule `CCC1(CC)CC(=O)c2cc(-c3ncc(-c4ccccn4)cn3)ccc2O1` [Compound 530, 2,2-diethyl-6-(5-(pyridin-2-yl)pyrimidin-2-yl)chroman-4-one], in assay [1], the “hS1P1 cAMP pEC50” value is given as less than 6.5. For the same molecule, the “hS1P1 B-arrestin2 pEC50” value in assay [2] is recorded as less than 5.

In the case of `COc1cc(NC(C)=O)ccc1-c1noc(-c2ccc3c(c2)nnn3C(C)C)n1` [Compound 532, N-(3-methoxy-4-{5-[1-(propan-2-yl)-1H-1,2,3-benzotriazol-5-yl]-1,2,4-oxadiazol-3-yl}phenyl)acetamide], in assay [1], the Emax is more than 75% and the “hS1P1 cAMP pEC50” value is reported as more than 6.5. Besides, in assay [2], the Emax is less than 75% and the “hS1P1 B-arrestin2 pEC50” value was more than 5.

For `COc1cc(NC(C)=O)ccc1-c1noc(-c2ccc3nonc3c2)n1` [Compound 533, N-{4-[5-(2,1,3-benzoxadiazol-5-yl)-1,2,4-oxadiazol-3-yl]-3-methoxyphenyl}acetamide], the “hS1P1 cAMP pEC50” value in assay [1] was less than 6.5. In addition, the “hS1P1 B-arrestin2 pEC50” value in assay [2] was less than 5.

As for `COCCn1cc(-c2ccccc2C)cc1-c1ccc2c(c1)nnn2C(C)C` [Compound 534, 5-[1-(2-methoxyethyl)-4-(2-methylphenyl)-1H-pyrrol-2-yl]-1-(propan-2-yl)-1H-1,2,3-benzotriazole], in assay [1], the Emax was less than 75% and the “hS1P1 cAMP pEC50” value is less than 6.5. Moreover, in assay [2], the Emax is less than 75% and the “hS1P1 B-arrestin2 pEC50” value was less than 5.

Consider `CC1CC(=O)c2ccc(-c3nc(-c4cccnc4)no3)cc2O1` (stereo not drawn) [Compound 535, 2-methyl-7-[3-(pyridin-3-yl)-1,2,4-oxadiazol-5-yl]-3,4-dihydro-2H-1-benzopyran-4-one], for which, in assay [1], the “hS1P1 cAMP pEC50” value is on record as less than 6.5. In assay [2], the “hS1P1 B-arrestin2 pEC50” value is recorded as more than 5.

As for `CC1CC(=O)c2ccc(-c3nc(-c4ccncc4)no3)cc2O1` (stereo not drawn) [Compound 536, 2-methyl-7-[3-(pyridin-4-yl)-1,2,4-oxadiazol-5-yl]-3,4-dihydro-2H-1-benzopyran-4-one], in assay [1], the “hS1P1 cAMP pEC50” value is less than 6.5. In addition, the “hS1P1 B-arrestin2 pEC50” value in assay [2] is on record as more than 5.

Turning to `CCC1(CC)CC(=O)c2cc(-c3nc(-c4cncc(C(N)=O)c4)no3)ccc2O1` [Compound 537, 5-(5-(2,2-diethyl-4-oxochroman-6-yl)-1,2,4-oxadiazol-3-yl)nicotinamide], the “hS1P1 cAMP pEC50” value in assay [1] is listed as more than 6.5. In assay [2], the “hS1P1 B-arrestin2 pEC50” value is given as more than 5.

`CCC1(CC)CC(=O)c2cc(-c3nc(-c4cncc(NC(C)=O)c4)no3)ccc2O1` [Compound 538, N-(5-(5-(2,2-diethyl-4-oxochroman-6-yl)-1,2,4-oxadiazol-3-yl)pyridin-3-yl)acetamide]: the “hS1P1 cAMP pEC50” value in assay [1] is listed as more than 6.5. The “hS1P1 B-arrestin2 pEC50” value in assay [2] is given as more than 5.

On to `CCC1(CC)CC(=O)c2cc(-c3nc(-c4ccc5[nH]c(=O)[nH]c5c4)no3)ccc2O1` [Compound 539, 5-(5-(2,2-diethyl-4-oxochroman-6-yl)-1,2,4-oxadiazol-3-yl)-1H-benzo[d]imidazol-2(3H)-one], for which the “hS1P1 cAMP pEC50” value in assay [1] is on record as more than 6.5. The “hS1P1 B-arrestin2 pEC50” value in assay [2] is on record as more than 5.

Take `Cc1nccnc1-c1nc(-c2ccc3c(c2)nnn3CC(C)(C)CO)no1` [Compound 540, 2,2-dimethyl-3-(5-(5-(3-methylpyrazin-2-yl)-1,2,4-oxadiazol-3-yl)-1H-benzo[d][1,2,3]triazol-1-yl)propan-1-ol]: the “hS1P1 cAMP pEC50” value in assay [1] is recorded as less than 6.5. Besides, in assay [2], the “hS1P1 B-arrestin2 pEC50” value is less than 5.

On to `Cc1ccncc1-c1nc(-c2ccc3c(c2)nnn3CC(C)(C)CO)no1` [Compound 541, 2,2-dimethyl-3-(5-(5-(4-methylpyridin-3-yl)-1,2,4-oxadiazol-3-yl)-1H-benzo[d][1,2,3]triazol-1-yl)propan-1-ol], for which the “hS1P1 cAMP pEC50” value in assay [1] is less than 6.5. In assay [2], the “hS1P1 B-arrestin2 pEC50” value is less than 5.

For the molecule `CC(C)n1nnc2cc(-c3cc(-c4ccccc4F)c[nH]3)ccc21` [Compound 542, 5-[4-(2-fluorophenyl)-1H-pyrrol-2-yl]-1-(propan-2-yl)-1H-1,2,3-benzotriazole], the “hS1P1 cAMP pEC50” value in assay [1] is given as less than 6.5. In assay [2], the “hS1P1 B-arrestin2 pEC50” value is given as more than 5.

Take `CC(C)n1nnc2cc(-c3c[nH]c(-c4ccccc4)c3)ccc21` [Compound 543, 5-(5-phenyl-1H-pyrrol-3-yl)-1-(propan-2-yl)-1H-1,2,3-benzotriazole]: in assay [1], the Emax is less than 75% and the “hS1P1 cAMP pEC50” value is recorded as more than 6.5. In addition, in assay [2], the Emax is less than 75% and the “hS1P1 B-arrestin2 pEC50” value was less than 5.

Regarding `CC(C)n1nnc2cc(-c3cc(-c4ccccc4)n(C)c3)ccc21` [Compound 544, 5-(1-methyl-5-phenyl-1H-pyrrol-3-yl)-1-(propan-2-yl)-1H-1,2,3-benzotriazole], the “hS1P1 cAMP pEC50” value in assay [1] was less than 6.5. For the same molecule, in assay [2], the “hS1P1 B-arrestin2 pEC50” value is recorded as more than 5.

For the molecule `CCC1(CC)CC(=O)c2cc(-c3nc(-c4cncc(NS(C)(=O)=O)c4)no3)ccc2O1` [Compound 545, N-(5-(5-(2,2-diethyl-4-oxochroman-6-yl)-1,2,4-oxadiazol-3-yl)pyridin-3-yl)methanesulfonamide], in assay [1], the Emax is more than 75% and the “hS1P1 cAMP pEC50” value is more than 6.5. In assay [2], the Emax is more than 75% and the “hS1P1 B-arrestin2 pEC50” value is more than 5.

`CCC1(CC)CC(=O)c2cc(-c3nc(-c4cnccc4C)no3)ccc2O1` [Compound 549, 2,2-diethyl-6-(3-(4-methylpyridin-3-yl)-1,2,4-oxadiazol-5-yl)chroman-4-one]: in assay [1], the “hS1P1 cAMP pEC50” value is listed as more than 6.5. Moreover, the “hS1P1 B-arrestin2 pEC50” value in assay [2] is listed as more than 5.

As for `CCC1(CC)CC(=O)c2cc(-c3nc(-c4ccc(C)nc4)no3)ccc2O1` [Compound 550, 2,2-diethyl-6-(3-(6-methylpyridin-3-yl)-1,2,4-oxadiazol-5-yl)chroman-4-one], the “hS1P1 cAMP pEC50” value in assay [1] is recorded as less than 6.5. The “hS1P1 B-arrestin2 pEC50” value in assay [2] was more than 5.

For the molecule `CCC1(CC)CC(=O)c2cc(-c3nc(-c4cncc(F)c4)no3)ccc2O1` [Compound 551, 2,2-diethyl-6-(3-(5-fluoropyridin-3-yl)-1,2,4-oxadiazol-5-yl)chroman-4-one], the “hS1P1 cAMP pEC50” value in assay [1] is listed as more than 6.5. Also, the “hS1P1 B-arrestin2 pEC50” value in assay [2] was more than 5.

For the molecule `CCC1(CC)CC(=O)c2cc(-c3ncc(-c4ccnc(O)c4)cn3)ccc2O1` [Compound 552, 2,2-diethyl-6-(5-(2-hydroxypyridin-4-yl)pyrimidin-2-yl)chroman-4-one], the “hS1P1 cAMP pEC50” value in assay [1] is less than 6.5. Moreover, the “hS1P1 B-arrestin2 pEC50” value in assay [2] was less than 5.

Regarding `CCC1(CC)CC(=O)c2cc(-c3nc(-c4cccc(OC)n4)no3)ccc2O1` [Compound 553, 2,2-diethyl-6-[3-(6-methoxypyridin-2-yl)-1,2,4-oxadiazol-5-yl]-3,4-dihydro-2H-1-benzopyran-4-one], the “hS1P1 cAMP pEC50” value in assay [1] is given as less than 6.5. Moreover, the “hS1P1 B-arrestin2 pEC50” value in assay [2] was more than 5.

For the molecule `CCC1(CC)CC(=O)c2cc(-c3nc(-c4ccsc4)no3)ccc2N1` [Compound 554, 2,2-diethyl-6-(3-(thiophen-3-yl)-1,2,4-oxadiazol-5-yl)-2,3-dihydroquinolin-4(1H)-one], in assay [1], the Emax is more than 75% and the “hS1P1 cAMP pEC50” value is listed as more than 6.5. Also, in assay [2], the Emax was more than 75% and the “hS1P1 B-arrestin2 pEC50” value is more than 5.

With `CCC1(CC)CC(=O)c2cc(-c3nc(-c4ccnc(C(N)=O)c4)no3)ccc2O1` [Compound 555, 4-(5-(2,2-diethyl-4-oxochroman-6-yl)-1,2,4-oxadiazol-3-yl)picolinamide], the “hS1P1 cAMP pEC50” value in assay [1] is more than 6.5. Moreover, the “hS1P1 B-arrestin2 pEC50” value in assay [2] is on record as more than 5.

As to `CCC1(CC)CC(=O)c2cc(-c3nc(-c4ccnc(NS(C)(=O)=O)c4)no3)ccc2O1` [Compound 556, N-(4-(5-(2,2-diethyl-4-oxochroman-6-yl)-1,2,4-oxadiazol-3-yl)pyridin-2-yl)methanesulfonamide], the “hS1P1 cAMP pEC50” value in assay [1] is on record as more than 6.5. Moreover, the “hS1P1 B-arrestin2 pEC50” value in assay [2] is more than 5.

As for `CCC1(CC)CC(=O)c2cc(-c3nc(-c4cncc(C(F)(F)F)c4)no3)ccc2O1` [Compound 557, 2,2-diethyl-6-(3-(5-(trifluoromethyl)pyridin-3-yl)-1,2,4-oxadiazol-5-yl)chroman-4-one], the “hS1P1 cAMP pEC50” value in assay [1] is on record as less than 6.5. The “hS1P1 B-arrestin2 pEC50” value in assay [2] is more than 5.

For the molecule `CCC1(CC)CC(=O)c2cc(-c3noc(-c4cccnc4)n3)ccc2O1` [Compound 559, 2,2-diethyl-6-(5-(pyridin-3-yl)-1,2,4-oxadiazol-3-yl)chroman-4-one], the “hS1P1 cAMP pEC50” value in assay [1] was more than 6.5. Besides, in assay [2], the “hS1P1 B-arrestin2 pEC50” value is given as more than 5.

On to `Cc1nc2cc(-c3nnc(-c4ccc(NCC(F)F)c(C#N)c4)o3)ccc2[nH]1` [Compound 561, 2-[(2,2-difluoroethyl)amino]-5-[5-(2-methyl-1H-1,3-benzodiazol-5-yl)-1,3,4-oxadiazol-2-yl]benzonitrile], for which the “hS1P1 cAMP pEC50” value in assay [1] is recorded as more than 6.5. Besides, in assay [2], the “hS1P1 B-arrestin2 pEC50” value is on record as more than 5.

These data come from patent publication US11912693B2, “Compounds for modulating S1P1 activity and methods of using the same” (TREVENA, INC., priority 2017, dated 2024).
